How the values were obtained:
Experiment in all cases: Ray2010 Assay 74
[1] = biological target: T1, Muscarinic acetylcholine receptor M2 (Homo sapiens, UniProt P08172)
T1 sequence (P08172 whole entry): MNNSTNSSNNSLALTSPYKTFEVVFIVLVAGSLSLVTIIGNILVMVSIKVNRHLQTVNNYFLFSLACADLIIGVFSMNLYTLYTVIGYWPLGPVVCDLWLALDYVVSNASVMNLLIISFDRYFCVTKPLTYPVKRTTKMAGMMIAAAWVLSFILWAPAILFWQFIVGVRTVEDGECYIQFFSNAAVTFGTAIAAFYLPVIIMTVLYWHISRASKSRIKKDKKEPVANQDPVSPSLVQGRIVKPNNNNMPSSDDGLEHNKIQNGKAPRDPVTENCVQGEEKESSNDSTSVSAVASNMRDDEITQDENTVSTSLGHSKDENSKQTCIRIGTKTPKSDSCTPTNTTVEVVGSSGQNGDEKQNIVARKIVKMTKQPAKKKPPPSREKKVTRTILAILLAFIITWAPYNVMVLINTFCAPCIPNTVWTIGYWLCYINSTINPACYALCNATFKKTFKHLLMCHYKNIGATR
Text: (§1) Table S2 shows raw Ki data for the current study combined with data collected from the literature for the ten additional compounds.

[2] = biological target: T2, Gamma-aminobutyric acid receptor subunit alpha-1 (Homo sapiens, UniProt P14867)
T2 sequence (P14867 whole entry): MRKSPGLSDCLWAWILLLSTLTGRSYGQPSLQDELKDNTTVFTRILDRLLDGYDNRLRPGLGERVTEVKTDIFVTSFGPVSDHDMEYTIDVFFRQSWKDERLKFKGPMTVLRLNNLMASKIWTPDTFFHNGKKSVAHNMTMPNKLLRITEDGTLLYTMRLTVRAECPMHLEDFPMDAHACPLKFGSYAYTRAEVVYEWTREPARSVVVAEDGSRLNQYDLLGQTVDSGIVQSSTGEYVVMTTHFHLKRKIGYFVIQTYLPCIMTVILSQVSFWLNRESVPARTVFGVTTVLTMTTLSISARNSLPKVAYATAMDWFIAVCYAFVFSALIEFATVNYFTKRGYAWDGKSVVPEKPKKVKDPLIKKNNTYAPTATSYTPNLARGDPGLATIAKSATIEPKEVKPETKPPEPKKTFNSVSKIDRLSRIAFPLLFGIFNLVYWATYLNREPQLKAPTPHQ
Text: as §1

[3] = biological target: T3, 5-hydroxytryptamine receptor 3A (Homo sapiens, UniProt P46098)
T3 sequence (P46098 whole entry): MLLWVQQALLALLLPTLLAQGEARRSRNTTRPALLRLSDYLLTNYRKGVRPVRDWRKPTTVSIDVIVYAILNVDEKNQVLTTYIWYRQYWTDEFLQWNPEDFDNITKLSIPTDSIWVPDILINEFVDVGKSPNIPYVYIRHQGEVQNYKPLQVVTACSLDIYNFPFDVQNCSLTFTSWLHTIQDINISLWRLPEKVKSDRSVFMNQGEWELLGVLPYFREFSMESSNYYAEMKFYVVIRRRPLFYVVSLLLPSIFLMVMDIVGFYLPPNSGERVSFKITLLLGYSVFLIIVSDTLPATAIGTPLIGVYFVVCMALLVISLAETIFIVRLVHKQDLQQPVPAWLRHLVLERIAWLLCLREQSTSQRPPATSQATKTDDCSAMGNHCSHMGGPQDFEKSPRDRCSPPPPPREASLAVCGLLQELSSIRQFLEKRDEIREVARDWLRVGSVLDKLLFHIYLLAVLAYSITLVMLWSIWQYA
Text: as §1

[4] = biological target: Delta-type opioid receptor (Homo sapiens, UniProt P41143)
Sequence of Delta-type opioid receptor (P41143 whole entry): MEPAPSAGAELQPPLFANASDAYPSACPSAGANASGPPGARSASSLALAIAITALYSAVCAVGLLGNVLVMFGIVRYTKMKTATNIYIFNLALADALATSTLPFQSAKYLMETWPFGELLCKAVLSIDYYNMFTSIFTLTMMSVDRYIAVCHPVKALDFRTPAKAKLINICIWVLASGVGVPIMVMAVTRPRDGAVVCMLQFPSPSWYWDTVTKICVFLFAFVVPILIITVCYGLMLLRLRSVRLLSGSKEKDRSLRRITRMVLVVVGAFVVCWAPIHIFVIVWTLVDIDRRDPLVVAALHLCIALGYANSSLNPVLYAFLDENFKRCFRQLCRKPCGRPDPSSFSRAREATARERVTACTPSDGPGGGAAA
Text: as §1

Mu-type opioid receptor = Mu-type opioid receptor (Homo sapiens, UniProt P35372)
Sequence of Mu-type opioid receptor (P35372 whole entry): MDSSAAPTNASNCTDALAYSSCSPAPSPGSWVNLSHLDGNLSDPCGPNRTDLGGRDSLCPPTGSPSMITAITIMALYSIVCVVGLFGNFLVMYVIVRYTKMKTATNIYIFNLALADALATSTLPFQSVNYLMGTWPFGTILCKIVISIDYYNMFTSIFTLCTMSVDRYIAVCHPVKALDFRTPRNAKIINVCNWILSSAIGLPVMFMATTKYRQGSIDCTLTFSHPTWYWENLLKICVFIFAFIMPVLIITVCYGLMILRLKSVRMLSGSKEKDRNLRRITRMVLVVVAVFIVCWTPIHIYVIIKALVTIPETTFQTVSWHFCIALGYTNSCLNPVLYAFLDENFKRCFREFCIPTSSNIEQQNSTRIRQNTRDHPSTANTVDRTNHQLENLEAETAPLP
Text: as §1

[5] = biological target: 5-hydroxytryptamine receptor 1D (Homo sapiens, UniProt P28221)
Text: as §1

[6] = biological target: T4, 5-hydroxytryptamine receptor 1A (Homo sapiens, UniProt P08908)
T4 sequence (P08908 whole entry): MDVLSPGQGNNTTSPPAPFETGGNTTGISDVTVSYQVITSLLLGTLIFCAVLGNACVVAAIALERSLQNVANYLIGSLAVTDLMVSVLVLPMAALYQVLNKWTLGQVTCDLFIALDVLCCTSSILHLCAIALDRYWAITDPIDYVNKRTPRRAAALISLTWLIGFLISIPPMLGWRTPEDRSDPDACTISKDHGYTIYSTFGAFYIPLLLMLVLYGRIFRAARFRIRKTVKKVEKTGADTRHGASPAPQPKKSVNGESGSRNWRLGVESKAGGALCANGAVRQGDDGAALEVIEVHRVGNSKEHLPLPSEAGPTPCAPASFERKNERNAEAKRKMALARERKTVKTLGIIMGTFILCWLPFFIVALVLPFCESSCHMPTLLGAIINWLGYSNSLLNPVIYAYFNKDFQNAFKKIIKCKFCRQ
Text: as §1

Histamine H4 receptor = Histamine H4 receptor (Homo sapiens, UniProt Q9H3N8)
Sequence of Histamine H4 receptor (Q9H3N8 whole entry): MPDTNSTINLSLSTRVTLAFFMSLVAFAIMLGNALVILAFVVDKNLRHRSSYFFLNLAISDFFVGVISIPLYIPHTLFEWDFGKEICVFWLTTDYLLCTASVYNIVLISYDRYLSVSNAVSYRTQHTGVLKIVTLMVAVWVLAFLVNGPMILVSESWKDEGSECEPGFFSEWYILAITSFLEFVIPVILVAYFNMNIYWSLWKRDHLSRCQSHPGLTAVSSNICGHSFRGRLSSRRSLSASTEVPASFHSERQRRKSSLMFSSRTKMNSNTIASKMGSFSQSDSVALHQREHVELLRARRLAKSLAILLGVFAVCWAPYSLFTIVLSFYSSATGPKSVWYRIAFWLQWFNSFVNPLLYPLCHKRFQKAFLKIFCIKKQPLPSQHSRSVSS
Text: as §1

D(1B) dopamine receptor = D(1B) dopamine receptor (Homo sapiens, UniProt P21918)
Sequence of D(1B) dopamine receptor (P21918 whole entry): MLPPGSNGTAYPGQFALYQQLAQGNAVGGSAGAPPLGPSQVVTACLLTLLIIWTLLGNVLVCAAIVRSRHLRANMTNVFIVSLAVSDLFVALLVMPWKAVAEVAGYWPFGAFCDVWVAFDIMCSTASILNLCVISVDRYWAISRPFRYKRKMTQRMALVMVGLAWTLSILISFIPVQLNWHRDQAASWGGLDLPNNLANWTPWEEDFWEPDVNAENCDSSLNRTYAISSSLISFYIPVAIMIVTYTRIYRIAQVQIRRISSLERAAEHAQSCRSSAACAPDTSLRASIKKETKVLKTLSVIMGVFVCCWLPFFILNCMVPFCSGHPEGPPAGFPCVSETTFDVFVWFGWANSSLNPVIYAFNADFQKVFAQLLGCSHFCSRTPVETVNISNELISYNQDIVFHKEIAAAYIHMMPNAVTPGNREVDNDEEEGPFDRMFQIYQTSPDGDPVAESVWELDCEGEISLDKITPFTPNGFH
Text: as §1

[7] = biological target: 5-hydroxytryptamine receptor 2B (Homo sapiens, UniProt P41595)
Sequence of 5-hydroxytryptamine receptor 2B (P41595 whole entry): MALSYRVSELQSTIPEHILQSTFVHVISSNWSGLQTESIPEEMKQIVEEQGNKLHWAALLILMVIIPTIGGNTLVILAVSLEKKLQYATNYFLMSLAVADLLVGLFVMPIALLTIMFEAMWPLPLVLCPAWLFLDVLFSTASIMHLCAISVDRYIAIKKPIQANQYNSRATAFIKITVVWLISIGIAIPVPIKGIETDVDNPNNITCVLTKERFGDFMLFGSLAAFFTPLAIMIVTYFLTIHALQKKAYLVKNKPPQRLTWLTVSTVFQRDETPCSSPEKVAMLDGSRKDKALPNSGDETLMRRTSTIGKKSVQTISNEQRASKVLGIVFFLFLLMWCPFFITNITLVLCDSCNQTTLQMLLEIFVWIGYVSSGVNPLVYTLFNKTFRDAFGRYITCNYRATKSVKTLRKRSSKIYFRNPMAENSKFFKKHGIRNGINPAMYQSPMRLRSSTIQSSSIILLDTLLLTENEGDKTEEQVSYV
Text: as §1

[8] = biological target: T5, Alpha-1A adrenergic receptor (Homo sapiens, UniProt P35348)
T5 sequence (P35348 whole entry): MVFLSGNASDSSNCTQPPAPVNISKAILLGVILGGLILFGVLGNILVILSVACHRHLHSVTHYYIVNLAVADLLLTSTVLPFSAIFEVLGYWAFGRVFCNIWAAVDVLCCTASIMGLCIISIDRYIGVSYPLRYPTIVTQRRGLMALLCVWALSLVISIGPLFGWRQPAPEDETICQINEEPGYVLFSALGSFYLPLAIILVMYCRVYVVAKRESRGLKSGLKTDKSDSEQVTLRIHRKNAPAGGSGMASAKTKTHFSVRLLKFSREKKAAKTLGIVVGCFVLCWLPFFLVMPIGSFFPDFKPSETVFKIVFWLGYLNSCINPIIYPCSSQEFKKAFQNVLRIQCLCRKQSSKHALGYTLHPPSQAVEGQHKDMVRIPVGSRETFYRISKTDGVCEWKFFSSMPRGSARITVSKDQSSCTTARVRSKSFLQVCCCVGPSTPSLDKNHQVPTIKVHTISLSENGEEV
Text: as §1

[9] = biological target: 5-hydroxytryptamine receptor 6 (Homo sapiens, UniProt P50406)
Sequence of 5-hydroxytryptamine receptor 6 (P50406 whole entry): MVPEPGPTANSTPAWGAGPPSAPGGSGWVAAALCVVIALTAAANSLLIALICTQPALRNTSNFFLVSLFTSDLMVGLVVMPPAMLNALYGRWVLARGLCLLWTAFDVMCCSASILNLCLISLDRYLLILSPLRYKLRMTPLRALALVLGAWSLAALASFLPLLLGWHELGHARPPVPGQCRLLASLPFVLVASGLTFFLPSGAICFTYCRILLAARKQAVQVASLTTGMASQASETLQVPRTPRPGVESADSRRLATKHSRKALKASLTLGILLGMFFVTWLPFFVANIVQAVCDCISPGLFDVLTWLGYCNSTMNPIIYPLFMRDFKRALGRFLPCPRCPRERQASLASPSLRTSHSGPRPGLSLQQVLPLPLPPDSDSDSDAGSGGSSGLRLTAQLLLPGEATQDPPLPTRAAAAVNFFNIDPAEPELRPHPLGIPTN
Text: as §1

D(2) dopamine receptor = D(2) dopamine receptor (Homo sapiens, UniProt P14416)
Sequence of D(2) dopamine receptor (P14416 whole entry): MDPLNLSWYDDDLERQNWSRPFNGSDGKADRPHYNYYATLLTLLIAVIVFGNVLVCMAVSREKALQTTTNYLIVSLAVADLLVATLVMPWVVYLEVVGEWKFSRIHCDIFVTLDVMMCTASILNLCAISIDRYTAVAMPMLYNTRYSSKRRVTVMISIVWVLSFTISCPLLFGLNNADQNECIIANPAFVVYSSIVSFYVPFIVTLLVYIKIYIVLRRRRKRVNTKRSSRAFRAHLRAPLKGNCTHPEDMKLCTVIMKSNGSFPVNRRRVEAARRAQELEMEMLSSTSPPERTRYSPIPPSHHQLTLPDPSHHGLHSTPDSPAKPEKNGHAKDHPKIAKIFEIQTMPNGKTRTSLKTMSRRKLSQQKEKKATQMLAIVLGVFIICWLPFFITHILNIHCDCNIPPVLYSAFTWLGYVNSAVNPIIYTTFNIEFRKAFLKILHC
Text: as §1

[10] = biological target: Glutamate receptor ionotropic, NMDA 2A (Homo sapiens, UniProt Q12879)
Sequence of Glutamate receptor ionotropic, NMDA 2A (Q12879 whole entry): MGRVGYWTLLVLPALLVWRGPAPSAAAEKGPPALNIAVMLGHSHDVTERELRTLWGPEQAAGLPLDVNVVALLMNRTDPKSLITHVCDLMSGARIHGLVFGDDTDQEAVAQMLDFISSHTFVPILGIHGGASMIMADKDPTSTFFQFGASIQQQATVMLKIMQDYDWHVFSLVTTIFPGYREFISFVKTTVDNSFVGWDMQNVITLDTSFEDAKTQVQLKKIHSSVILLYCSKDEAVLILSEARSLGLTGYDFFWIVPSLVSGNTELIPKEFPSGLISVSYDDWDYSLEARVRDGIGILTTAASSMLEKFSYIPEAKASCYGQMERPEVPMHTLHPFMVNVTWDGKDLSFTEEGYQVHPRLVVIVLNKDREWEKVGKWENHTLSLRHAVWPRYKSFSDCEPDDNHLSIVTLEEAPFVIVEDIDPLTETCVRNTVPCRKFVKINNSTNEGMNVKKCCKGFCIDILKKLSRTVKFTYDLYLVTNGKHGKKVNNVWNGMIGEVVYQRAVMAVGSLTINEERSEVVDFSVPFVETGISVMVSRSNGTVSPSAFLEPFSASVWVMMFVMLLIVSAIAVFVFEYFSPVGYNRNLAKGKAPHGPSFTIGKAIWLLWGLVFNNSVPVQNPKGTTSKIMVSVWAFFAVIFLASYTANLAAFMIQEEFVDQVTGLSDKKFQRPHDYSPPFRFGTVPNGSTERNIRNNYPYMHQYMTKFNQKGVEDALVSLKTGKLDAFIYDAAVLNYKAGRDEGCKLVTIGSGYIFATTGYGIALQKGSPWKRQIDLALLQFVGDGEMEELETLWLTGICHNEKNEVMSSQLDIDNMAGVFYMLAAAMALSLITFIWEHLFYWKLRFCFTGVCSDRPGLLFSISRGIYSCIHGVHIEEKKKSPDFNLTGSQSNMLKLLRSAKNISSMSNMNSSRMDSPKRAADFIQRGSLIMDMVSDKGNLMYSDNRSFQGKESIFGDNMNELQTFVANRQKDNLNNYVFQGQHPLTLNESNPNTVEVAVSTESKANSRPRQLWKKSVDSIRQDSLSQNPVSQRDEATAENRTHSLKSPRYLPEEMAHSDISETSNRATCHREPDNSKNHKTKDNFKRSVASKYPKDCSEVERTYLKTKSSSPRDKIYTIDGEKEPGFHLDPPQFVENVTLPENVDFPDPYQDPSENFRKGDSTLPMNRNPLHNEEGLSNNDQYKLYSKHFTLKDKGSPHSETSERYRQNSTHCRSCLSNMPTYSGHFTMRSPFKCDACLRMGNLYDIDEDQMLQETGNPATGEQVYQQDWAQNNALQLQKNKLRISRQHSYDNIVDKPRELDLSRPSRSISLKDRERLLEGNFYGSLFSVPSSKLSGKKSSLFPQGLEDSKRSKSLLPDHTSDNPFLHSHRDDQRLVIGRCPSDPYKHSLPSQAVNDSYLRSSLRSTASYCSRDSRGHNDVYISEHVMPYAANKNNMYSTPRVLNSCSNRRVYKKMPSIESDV
Text: as §1

[11] = biological target: Beta-1 adrenergic receptor (Homo sapiens, UniProt P08588)
Sequence of Beta-1 adrenergic receptor (P08588 whole entry): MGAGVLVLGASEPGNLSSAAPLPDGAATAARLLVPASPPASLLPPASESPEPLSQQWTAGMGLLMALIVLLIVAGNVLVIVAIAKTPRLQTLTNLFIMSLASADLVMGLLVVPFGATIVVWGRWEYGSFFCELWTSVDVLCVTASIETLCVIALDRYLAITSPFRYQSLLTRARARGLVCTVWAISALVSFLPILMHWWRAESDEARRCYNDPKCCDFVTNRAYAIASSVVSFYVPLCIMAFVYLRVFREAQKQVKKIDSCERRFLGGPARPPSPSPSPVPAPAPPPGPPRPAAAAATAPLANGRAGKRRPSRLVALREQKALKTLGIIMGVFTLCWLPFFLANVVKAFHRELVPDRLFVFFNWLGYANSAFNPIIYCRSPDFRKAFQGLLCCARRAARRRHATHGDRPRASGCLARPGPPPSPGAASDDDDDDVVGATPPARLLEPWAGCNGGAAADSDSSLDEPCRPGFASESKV
Text: as §1

Row | SMILES | Ki [1] [µM] | Ki [2] [µM] | Ki [3] [µM] | Ki [4] [µM] | Ki (Mu-type opioid receptor) [µM] | Ki [5] [µM] | Ki [6] [µM] | Ki (Histamine H4 receptor) [µM] | Ki (D(1B) dopamine receptor) [µM] | Ki [7] [µM] | Ki [8] [µM] | Ki [9] [µM] | Ki (D(2) dopamine receptor) [µM] | Ki [10] [µM] | Ki [11] [µM]
1 | CCOc1cc(OC)c(CC(C)N)cc1OC (stereo not drawn) | > 10 | > 10 | > 10 | > 10 | > 10 | > 10 | > 10 | > 10 | > 10 | 0.0645 | > 10 | > 10 | > 10 | > 10 | > 10
2 | COc1cc(CC(C)N)cc(OC)c1OC (stereo not drawn) | > 10 | > 10 | > 10 | > 10 | > 10 | 3.03 | 1.68 | > 10 | > 10 | 0.477 | > 10 | > 10 | > 10 | > 10 | > 10
3 | COc1cc(CCN)c(OC)cc1Br | > 10 | > 10 | > 10 | > 10 | > 10 | 0.0263 | 0.241 | > 10 | > 10 | 0.0135 | > 10 | 0.32 | 3.37 | > 10 | –
4 | CCc1cc(OC)c(CC(C)N)cc1OC (stereo not drawn) | > 10 | > 10 | > 10 | > 10 | > 10 | 6.62 | 0.0144 | > 10 | > 10 | 0.0288 | > 10 | > 10 | > 10 | > 10 | 5.72
5 | CCSc1cc(OC)c(CC(N)CC)cc1OC (stereo not drawn) [1-(4-Ethylsulfanyl-2,5-dimethoxy-benzyl)-propylamine] | > 10 | > 10 | > 10 | > 10 | > 10 | > 10 | 5.34 | > 10 | > 10 | 0.0581 | > 10 | > 10 | > 10 | > 10 | > 10
6 | CCc1cc(OC)c(CCN)cc1OC [2-(2,5-dimethoxy-4-ethylphenyl)ethylamine] | > 10 | > 10 | > 10 | > 10 | > 10 | 0.0732 | – | > 10 | > 10 | 0.0251 | > 10 | 2.97 | 3.34 | > 10 | > 10
7 | COc1cc(CC(C)N)c(OC)cc1Br (stereo not drawn) [2-(4-Bromo-2,5-dimethoxy-phenyl)-1-methyl-ethylamine((-)-DOB)] | > 10 | > 10 | > 10 | > 10 | > 10 | 0.635 | 2.55 | > 10 | > 10 | 0.0039 | > 10 | 5.53 | > 10 | > 10 | 2.42
